Data as given in patent US12492210B2, “Tricyclic compounds and their use” (HUTCHISON MEDIPHARMA LIMITED, priority 2019, dated 2025).
pIC50: −log10 of the molar value.

What was measured:
MAPK1(ERK2) enzyme = molecular target: T1, MAPK1(ERK2) enzyme (Homo sapiens, UniProt P28482); assay: Z-Lyte Kinase Assay of ERK2; type: biochemical; details: read-out: Example 18 IC50
T1 construct: purchased Invitrogen PV3313
Experimental: Example 18: Z-Lyte Kinase Assay of ERK2
1. Materials and Reagents:
2. Reaction Steps: Plate Map
3. Solution Preparation • 1) 1.33× Kinase Buffer: Dilute 5× Kinase Buffer to 1.33× with ddH2O • 2) 4× Test Compounds: Serially dilute the test compounds to 4 folds of the concentrations desired, keeping the DMSO concentration at 8%. The final concentrations are 1, 0.33, 0.11, 0.037, 0.012, 0.004, 0.0014, 0.00046 μM, and the final concentration of DMSO is 2%. • 3) Kinase/Peptide Mixture (P/K solution): Prepare Kinase/Peptide Mixture by diluting the kinase to 0.6 μg/ml and the Z-LYTE™ Ser/Thr3 peptide to 4 μM in 1.33× Kinase Buffer. Mix gently by pipetting. • 4) Phospho-peptide Solution (PP solution): Add 0.4 μl of Z-LYTE™ Ser/Thr3 Phospho-peptide to 99.6 μl of 1.33× Kinase Buffer. • 5) ATP Solution: Prepare ATP Solution by diluting the 10 mM of ATP in 1.33× Kinase Buffer to 100 μM. • 6) Development Solution: Dilute Development Reagent A with Development Buffer as 1:1024. 4. Reaction • 1) Kinase reaction (10 μl of Volume) • a. In a 384-well plate, add 2.5 μl of 4× test Cpds to each well except C1, C2, C3 wells Add 2.5 μl of 8% DMSO to C1, C2, C3 wells • b. Put the plate on ice • c. Add 5 μl of P/K mixture to each test Cpd wells and C1, C2 wells • d. Add 5 μl of PP Solution to C3 well • e. Add 2.5 μl of 1.33× kinase buffer to C1 and C3 wells • f. Add 2.5 μl of 4×ATP Solution to each test Cpd wells and C2 well, respectively. Shake the plate for 30 Sec and centrifuge (1500 rpm, 1 min) • g. Seal the plate to protect from the light and incubate the plate for 1 hour at RT (25-30° C.) • 2) Development reaction • a. Add 5 μl of the Development solution to all wells • b. Shake the plate for 30 sec and centrifuge (1500 rpm, 1 min) • c. Seal the plate to protect from the light and incubate the plate for 1 hour at RT (25-30° C.) • 3) Stop and read • a. Add 5 μl of the Stop reagent to all wells • b. Shake the plate for 30 sec and centrifuge (1500 rpm, 1 min) • c. Measure the value of coumarin (Ex400 nm, Em445 nm) and fluorescein (Ex400 nm, Em520 nm), respectively. 5. Data Analysis Emission Ratio(ER)=Coumarin Emission (445 nm)/Fluorescein Emission (520 nm) % Phosphorylation=1−[ER×C3520nm−C3445nm]/[(C1445nm−C3445nm)+ER×(C3520nm−C1520nm)] Inhibition rate (IR)=1−% Photest Cpd% PhoC2 6. IC50 Value: determine IC50 with add-in software for Microsoft Excel, XLfit™ (version 2.0) from ID Business Solutions (Guildford, UK)

[1] = test system: p-RSK (Thr359) in colo205 cells; assay: p-RSK (Thr359) Acumen Assay in Colo205; type: cell-based; details: Homo sapiens, COLO 205, 1 hour compound incubation, read-out: Example 19 IC50
Experimental: Example 19: p-RSK (Thr359) Acumen Assay in Colo205
• Phospho-p90RSK (Thr359) (D1E9) Rabbit mAb: cell signal, #8753 • Alexa Fluor® 488 donkey anti-rabbit IgG: invitrogen, #A-21206 • Propidium Iodide: Sigma, #p4170 • 4% Paraformaldehyde: SCRC, #DF021 • 10% Triton X-100: PIERCE, #28314 • 96-well plate (black with clear bottom): BD, #354640 • Acumen® eX3 (A Multilaser Microplate Cytometer For Enhanced High Content Screening): TTP LabTech 3. Acumen Assay Protocol • Seed 4000 cells in 100 μl 10% FBS/well into 96-well plate, incubate at 37° C., 5% CO2, overnight. • Dilute the compound to 3, 1, 0.33, 0.11, 0.037, 0.012, 0.004, 0.001 μM, keeping the DMSO concentration at 5%. Add 10 μl of diluted compound per well and incubate at 37° C., 5% CO2 for 1 hour. • Add 100 μl of 4% pre-warmed Paraformaldehyde (2% final), and incubate for 45 min at room temperature. • Remove paraformaldehyde solutions. Add 100 μl of ice-cold 0.1% Triton to fixed cells at room temperature for 30 min. • Wash twice with 150 μl PBS and incubate with 100 μl blocking buffer (1% BSA, in PBS) for 2˜3 hours at room temperature, seal the plate. • Wash once with PBS and incubate with 35 μl p-RSK (Thr359) (1:1000 dilution) overnight at 4° C. Seal the plate. • Wash twice with PBS and incubate for 1.5 hours at room temperature with 35 μl of Alexa Fluor® 488 donkey anti-rabbit IgG at a 1:1,000 dilution in antibody dilution buffer (0.1% BSA, in PBS). Cover plate in foil to keep out of light. • Wash twice with 150 μl PBS. Add 35 μl of 1.5 μM Propidium Iodide stock to each well to determine cell number, seal the plate. • Incubate at room temperature for 30 min. Load the plate into the Acumen Explorer and scan with the appropriate instrument settings. 4. Data Analysis
[formula] Note: • Percentagecompound well represents the positive percentage of cells treated by compound. • Percentagemin well represents the positive percentage of cells treated with 3 uM GDC0994. • Percentagemax well represents the positive percentage of cells without compounds treatment. 5. IC50 Value: determine IC50 with add-in software for Microsoft Excel, XLfit™ (version 2.0) from ID Business Solutions (Guildford, UK)

T1 sequence (P28482 whole entry): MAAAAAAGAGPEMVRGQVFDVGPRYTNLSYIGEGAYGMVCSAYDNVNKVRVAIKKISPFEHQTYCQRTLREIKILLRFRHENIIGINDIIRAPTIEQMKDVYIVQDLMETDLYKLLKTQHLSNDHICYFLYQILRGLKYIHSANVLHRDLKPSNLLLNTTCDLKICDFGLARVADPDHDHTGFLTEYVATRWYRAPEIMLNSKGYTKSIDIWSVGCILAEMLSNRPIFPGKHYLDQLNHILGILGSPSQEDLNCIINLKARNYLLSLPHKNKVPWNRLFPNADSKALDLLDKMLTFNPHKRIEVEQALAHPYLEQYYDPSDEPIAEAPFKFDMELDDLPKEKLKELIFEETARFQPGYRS

pIC50 (MAPK1(ERK2) enzyme) | pIC50 [1] | Structure (SMILES)
< 8.00 | ≥ 7.00 | Cc1cnc(Nc2ccnn2C)cc1-c1cc2n(c1)C[C@H](CF)n1c-2nnc1C(F)(F)c1cccc(F)c1F [Compound 180]
≥ 8.30 | ≥ 7.00 | Cn1nccc1Nc1cc(-c2cc3n(c2)CC(F)(F)Cn2c-3nnc2C2(C(F)(F)F)CC2)c(Cl)cn1 [Compound 140]
8.00 to 8.30 | ≥ 7.00 | Cn1nccc1Nc1cc(-c2cc3n(c2)C[C@H](CF)n2c-3nnc2C(F)(F)c2ccon2)c(Cl)cn1 [Compound 112]
≥ 8.30 | ≥ 7.00 | Cc1cnc(Nc2ccnn2C)cc1-c1cc2n(c1)C[C@H](CF)n1c-2nnc1C(F)(F)c1ncccc1Cl [Compound 174]
8.00 to 8.30 | ≥ 7.00 | COCCn1nccc1Nc1ncc(C)c(-c2cc3n(c2)C[C@H](C)n2c-3nnc2C(F)(F)c2ccccc2F)n1 [Compound 296]
8.00 to 8.30 | ≥ 7.00 | Cn1nccc1Nc1cc(-c2cc3n(c2)CC2(CC2)Cn2c-3nnc2C(F)(F)C(F)F)c(Cl)cn1 [Compound 93]
8.00 to 8.30 | ≥ 7.00 | Cc1cnc(Nc2ccnn2C)cc1-c1cc2n(c1)C[C@H](CF)n1c-2nnc1C(F)(F)c1cccc(F)c1 [Compound 127]
≥ 8.30 | ≥ 7.00 | Cc1c(-c2ccnc(Nc3ccnn3C)n2)cn2c1-c1nnc([C@H](C)Oc3ccccc3F)n1CCC2 [Compound 29]
≥ 8.30 | ≥ 7.00 | Cn1nccc1Nc1cc(-c2cc3n(c2)CCCn2c-3nnc2C2(C(F)(F)F)CCC2)c(Cl)cn1 [Compound 30]
≥ 8.30 | ≥ 7.00 | Cc1cnc(Nc2ccnn2C)cc1-c1cc2n(c1)C[C@H](CF)n1c-2nnc1C(F)(F)c1ncccc1F [Compound 133]
≥ 8.30 | ≥ 7.00 | Cn1nccc1Nc1cc(-c2cc3n(c2)C[C@H](CF)n2c-3nnc2C2(F)CC2)c(Cl)cn1 [Compound 56]
≥ 8.30 | ≥ 7.00 | Cn1nccc1Nc1cc(-c2cc3n(c2)C[C@H](CF)n2c-3nnc2C(F)(F)C(F)F)c(F)cn1 [Compound 63]
≥ 8.30 | < 7.00 | Cn1nccc1Nc1cc(-c2cc3n(c2)CCCn2c-3nnc2C(C)(C)C(F)(F)F)c(Cl)cn1 [Compound 22]
≥ 8.30 | ≥ 7.00 | C[C@H]1Cn2cc(-c3cc(Nc4ccnn4C)ncc3Cl)cc2-c2nnc(C(F)(F)n3cc(F)cn3)n21 [Compound 108]
≥ 8.30 | < 7.00 | Cn1nccc1Nc1nccc(-c2cc3c4nnc(Nc5ccccc5F)n4ccn3c2)n1 [Compound 41, N-(2-fluorophenyl)-9-(2-((1-methyl-1H-pyrazol-5-yl)amino)pyrimidin-4-yl)pyrrolo[1,2-a][1,2,4]triazolo[3,4-c]pyrazin-3-amine]
≥ 8.30 | ≥ 7.00 | Cc1cc(Nc2ncc(C)c(-c3cc4n(c3)CCCn3c-4nnc3C3(C(F)(F)F)CCC3)n2)ccn1 [Compound 281, 5-methyl-N-(2-methylpyridin-4-yl)-4-(3-(1-(trifluoromethyl)cyclobutyl)-6,7-dihydro-5H-pyrrolo[1,2-a][1,2,4]triazolo[3,4-c][1,4]diazepin-10-yl)pyrimidin-2-amine]
< 8.00 | < 7.00 | COc1cc(Nc2ncc(C)c(-c3cc4n(c3)C[C@H](C)n3c-4nnc3C(F)(F)c3ccccc3F)n2)c(C)cn1 [Compound 294]

pIC50 (MAPK1(ERK2) enzyme) | pIC50 [1] | Structure (SMILES)
≥ 8.30 | ≥ 7.00 | Cn1nccc1Nc1cc(-c2cc3n(c2)CC2(CC2)Cn2c(CCC(F)(F)F)nnc2-3)c(Cl)cn1 [Compound 254]
8.00 to 8.30 | < 7.00 | Cc1cnc(Nc2c(F)cnn2C)nc1-c1cc2n(c1)C[C@H](C)n1c-2nnc1C(F)(F)c1ccccc1F [Compound 290]
≥ 8.30 | ≥ 7.00 | Cn1nccc1Nc1cc(-c2cc3n(c2)CCCn2c-3nnc2[C@](C)(O)C(F)(F)F)c(Cl)cn1 [Compound 26]
≥ 8.30 | ≥ 7.00 | Cc1cnc(Nc2ccnn2C)nc1-c1cc2n(c1)CCCn1c(COc3ccccc3F)nnc1-2 [Compound 17]
≥ 8.30 | ≥ 7.00 | Cn1nccc1Nc1nccc(-c2cc3n(c2)C[C@H](C(F)F)n2c-3nnc2C(F)(F)c2ccccc2F)n1 [Compound 149]
8.00 to 8.30 | ≥ 7.00 | C[C@H]1Cn2cc(-c3ccnc(Nc4ccnn4C)n3)cc2-c2nnc(C(F)(F)c3ccccc3Cl)n21 [Compound 95]
≥ 8.30 | ≥ 7.00 | Cn1nccc1Nc1cc(-c2cc3n(c2)CC(F)(F)Cn2c-3nnc2C(C)(C)C(F)(F)F)c(Cl)cn1 [Compound 146]
8.00 to 8.30 | < 7.00 | Cn1nccc1Nc1cc(-c2cc3n(c2)C[C@H](CF)n2c-3nnc2C(F)(F)c2cccc(F)c2)c(Cl)cn1 [Compound 191]
< 8.00 | < 7.00 | Fc1ccccc1OCc1nnc2n1CCCn1cc(-c3cc(NC4CC4)ncc3C(F)(F)F)cc1-2 [Compound 252]
8.00 to 8.30 | < 7.00 | Cn1nccc1Nc1cc(-c2cc3n(c2)CCCn2c-3nnc2N2CCc3ccccc32)c(Cl)cn1 [Compound 53, 5-Chloro-4-(3-(indolin-1-yl)-6,7-dihydro-5H-pyrrolo[1,2-a][1,2,4]triazolo[3,4-c][1,4]diazepin-10-yl)-N-(1-methyl-1H-pyrazol-5-yl)pyridin-2-amine]
≥ 8.30 | ≥ 7.00 | Cn1nccc1Nc1cc(-c2cc3n(c2)CC2(CCC2)n2c(CCC(F)(F)F)nnc2-3)c(Cl)cn1 [Compound 253]
8.00 to 8.30 | < 7.00 | CC(C)Nc1cc(-c2cc3n(c2)CCCn2c-3nnc2C2(C(F)(F)F)CCC2)c(Cl)cn1 [Compound 230]
≥ 8.30 | ≥ 7.00 | Cc1cnc(Nc2ccnn2C)cc1-c1cc2n(c1)C[C@H](CF)n1c-2nnc1C(F)(F)n1ccc(F)n1 [Compound 104]
8.00 to 8.30 | ≥ 7.00 | Cn1nccc1Nc1cc(-c2cc3n(c2)C[C@H](C(F)F)n2c-3nnc2C(F)(F)c2ccccc2F)c(F)cn1 [Compound 196]
< 8.00 | ≥ 7.00 | COC[C@H]1Cn2cc(-c3cc(Nc4ccnn4C)ncc3C)cc2-c2nnc(C(F)(F)c3ccccc3Cl)n21 [Compound 201]
≥ 8.30 | ≥ 7.00 | Cc1cnc(Nc2ccnn2C)nc1-c1cn2c(n1)-c1nnc(C(F)(F)c3ccccc3Cl)n1[C@@H](CF)C2 [Compound 225]
